Experimental data taken from ChEMBL document CHEMBL1201862, “PubChem BioAssay data set” (2004).
Active and inactive are the calls of the source.

Tests used:
[1] = target: T1, Endoribonuclease toxin MazF (Escherichia coli K-12, UniProt P0AE70); assay: activation of MazEF endoribonuclease cleavage – biochemical, fluorescence, single-stranded RNA substrate, uHTS hits, dose response (AID 588481); assay type: functional
T1 sequence (P0AE70 whole entry): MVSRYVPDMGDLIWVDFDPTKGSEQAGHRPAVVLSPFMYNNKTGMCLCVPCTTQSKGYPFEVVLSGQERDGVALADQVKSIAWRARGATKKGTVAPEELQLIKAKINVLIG

[2] = target: T1, Endoribonuclease toxin MazF; assay: substrate-only fluorescence increase artefacts – biochemical, single-stranded RNase substrate, counter-screen for MazEF activator project, dose response (AID 588502); assay type: functional
[3] = target: T2, Zinc finger protein mex-5 (Caenorhabditis elegans, UniProt Q9XUB2); assay: potency of MEX-5 RNA-binding blockers – biochemical, C. elegans, fluorescence polarization, dose response (AID 1960)
T2 sequence (Q9XUB2 whole entry): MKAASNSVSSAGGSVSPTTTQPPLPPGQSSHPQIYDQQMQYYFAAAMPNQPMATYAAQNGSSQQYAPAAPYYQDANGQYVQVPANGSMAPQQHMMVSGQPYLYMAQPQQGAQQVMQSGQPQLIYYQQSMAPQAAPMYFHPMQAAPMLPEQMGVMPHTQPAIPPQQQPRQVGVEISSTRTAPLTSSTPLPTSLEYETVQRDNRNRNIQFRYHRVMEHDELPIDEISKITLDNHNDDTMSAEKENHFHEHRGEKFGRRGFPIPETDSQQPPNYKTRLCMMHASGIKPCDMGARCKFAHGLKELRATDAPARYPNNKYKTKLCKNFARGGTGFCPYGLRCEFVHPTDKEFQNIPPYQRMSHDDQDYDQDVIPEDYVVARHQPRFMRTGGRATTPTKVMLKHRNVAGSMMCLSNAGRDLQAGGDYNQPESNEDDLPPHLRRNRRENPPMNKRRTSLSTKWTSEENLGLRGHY

[4] = target: T3, RNA-binding protein pos-1 (Caenorhabditis elegans, UniProt G5EF15); assay: disruptors of C. elegans POS-1 RNA interaction – biochemical, fluorescence polarization, dose response (AID 1964);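 note: purified POS-1 fused to maltose binding protein made in E. coli; potency of compounds blocking POS-1 binding to fluorescent RNA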
T3 sequence (G5EF15 whole entry): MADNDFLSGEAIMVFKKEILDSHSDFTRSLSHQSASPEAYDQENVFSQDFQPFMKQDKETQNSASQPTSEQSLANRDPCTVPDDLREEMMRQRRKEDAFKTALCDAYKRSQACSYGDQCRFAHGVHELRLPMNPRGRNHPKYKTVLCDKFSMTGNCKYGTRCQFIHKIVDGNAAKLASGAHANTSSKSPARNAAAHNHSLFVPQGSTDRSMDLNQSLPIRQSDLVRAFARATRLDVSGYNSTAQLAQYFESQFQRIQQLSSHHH

[5] = target: Induced myeloid leukemia cell differentiation protein Mcl-1 (Homo sapiens, UniProt Q07820); assay type: functional
Chain of Induced myeloid leukemia cell differentiation protein Mcl-1 (Q07820 whole entry): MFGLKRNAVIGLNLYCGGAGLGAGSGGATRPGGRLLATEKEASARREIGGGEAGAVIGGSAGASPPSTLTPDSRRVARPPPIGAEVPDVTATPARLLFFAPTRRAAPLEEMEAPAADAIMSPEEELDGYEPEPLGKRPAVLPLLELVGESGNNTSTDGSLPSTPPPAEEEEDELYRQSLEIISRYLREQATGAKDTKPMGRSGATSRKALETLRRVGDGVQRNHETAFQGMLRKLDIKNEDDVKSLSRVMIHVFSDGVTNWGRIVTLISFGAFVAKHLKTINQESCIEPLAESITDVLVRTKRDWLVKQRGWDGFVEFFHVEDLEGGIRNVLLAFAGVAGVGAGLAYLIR

[6] = Luminescence Cell-Based Dose Retest to Confirm Inhibitors of Cancer Stem Cells. [Related pubchem assays (depositor defined):AID2717, AID2721]; assay type: functional; details: Homo sapiens
[7] = target: T4, Apoptotic protease-activating factor 1 (Homo sapiens, UniProt O14727); assay type: functional
T4 sequence (O14727 whole entry): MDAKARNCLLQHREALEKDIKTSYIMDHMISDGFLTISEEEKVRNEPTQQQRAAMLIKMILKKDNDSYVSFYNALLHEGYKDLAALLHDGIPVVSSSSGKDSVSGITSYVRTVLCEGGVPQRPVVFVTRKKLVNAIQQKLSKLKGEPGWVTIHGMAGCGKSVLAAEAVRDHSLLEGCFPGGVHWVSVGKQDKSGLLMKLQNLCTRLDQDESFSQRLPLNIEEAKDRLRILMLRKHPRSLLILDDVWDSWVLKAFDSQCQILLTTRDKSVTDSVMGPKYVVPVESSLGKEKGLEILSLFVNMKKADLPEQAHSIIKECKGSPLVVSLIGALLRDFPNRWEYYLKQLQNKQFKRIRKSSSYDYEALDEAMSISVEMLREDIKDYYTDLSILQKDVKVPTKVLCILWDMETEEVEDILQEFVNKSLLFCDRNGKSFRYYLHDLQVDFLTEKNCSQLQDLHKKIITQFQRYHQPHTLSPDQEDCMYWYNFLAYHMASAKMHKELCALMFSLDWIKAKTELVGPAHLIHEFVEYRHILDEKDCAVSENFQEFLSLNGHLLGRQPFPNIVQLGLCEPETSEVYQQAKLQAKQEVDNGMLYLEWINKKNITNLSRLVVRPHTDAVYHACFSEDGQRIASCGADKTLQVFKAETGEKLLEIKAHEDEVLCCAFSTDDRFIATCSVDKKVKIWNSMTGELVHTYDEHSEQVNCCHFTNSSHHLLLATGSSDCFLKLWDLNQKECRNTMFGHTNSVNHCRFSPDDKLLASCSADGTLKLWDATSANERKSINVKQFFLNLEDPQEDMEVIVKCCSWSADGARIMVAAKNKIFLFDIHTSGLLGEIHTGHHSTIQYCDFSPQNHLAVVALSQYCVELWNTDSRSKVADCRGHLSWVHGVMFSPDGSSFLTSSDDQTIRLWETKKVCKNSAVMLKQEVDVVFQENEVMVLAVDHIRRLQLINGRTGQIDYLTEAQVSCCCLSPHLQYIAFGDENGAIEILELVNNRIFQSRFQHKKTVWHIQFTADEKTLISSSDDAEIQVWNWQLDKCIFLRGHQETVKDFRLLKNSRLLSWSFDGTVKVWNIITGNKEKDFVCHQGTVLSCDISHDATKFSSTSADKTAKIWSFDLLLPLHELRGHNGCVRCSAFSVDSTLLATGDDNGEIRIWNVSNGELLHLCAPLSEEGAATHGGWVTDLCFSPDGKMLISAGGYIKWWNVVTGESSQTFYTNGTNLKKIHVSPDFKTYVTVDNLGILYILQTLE

INS1 = assay: INS-1E survival protection against cytokine death – cell-based, luminescence, retest, dose response (AID 449756); assay type: functional; details: Rattus norvegicus;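 note: cell death triggered by IL-1 beta plus TNF-alpha plus IFN-gamma mixture; protective hits raise ATP signal compared with cytokine alone wells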
Nonstructural protein 1 = Nonstructural protein 1 (Influenza A virus, UniProt Q194T2); assay type: functional, Influenza A virus (A/California/07/2009(H1N1))
Chain of Nonstructural protein 1 (Q194T2 whole entry): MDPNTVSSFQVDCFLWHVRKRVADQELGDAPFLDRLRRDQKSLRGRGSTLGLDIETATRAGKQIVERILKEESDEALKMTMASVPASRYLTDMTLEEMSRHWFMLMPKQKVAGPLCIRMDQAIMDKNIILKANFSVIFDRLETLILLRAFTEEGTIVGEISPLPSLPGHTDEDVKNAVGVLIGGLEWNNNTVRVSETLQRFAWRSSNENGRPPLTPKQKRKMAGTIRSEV

Genome polyprotein = Genome polyprotein (dengue virus type 2, UniProt P29990); assay: flavivirus cap methylation enzyme inhibition – biochemical, confirmation dose response, primary screen (AID 588689); assay type: functional
Chain of Genome polyprotein (P29990 2492-3391 limits assumed): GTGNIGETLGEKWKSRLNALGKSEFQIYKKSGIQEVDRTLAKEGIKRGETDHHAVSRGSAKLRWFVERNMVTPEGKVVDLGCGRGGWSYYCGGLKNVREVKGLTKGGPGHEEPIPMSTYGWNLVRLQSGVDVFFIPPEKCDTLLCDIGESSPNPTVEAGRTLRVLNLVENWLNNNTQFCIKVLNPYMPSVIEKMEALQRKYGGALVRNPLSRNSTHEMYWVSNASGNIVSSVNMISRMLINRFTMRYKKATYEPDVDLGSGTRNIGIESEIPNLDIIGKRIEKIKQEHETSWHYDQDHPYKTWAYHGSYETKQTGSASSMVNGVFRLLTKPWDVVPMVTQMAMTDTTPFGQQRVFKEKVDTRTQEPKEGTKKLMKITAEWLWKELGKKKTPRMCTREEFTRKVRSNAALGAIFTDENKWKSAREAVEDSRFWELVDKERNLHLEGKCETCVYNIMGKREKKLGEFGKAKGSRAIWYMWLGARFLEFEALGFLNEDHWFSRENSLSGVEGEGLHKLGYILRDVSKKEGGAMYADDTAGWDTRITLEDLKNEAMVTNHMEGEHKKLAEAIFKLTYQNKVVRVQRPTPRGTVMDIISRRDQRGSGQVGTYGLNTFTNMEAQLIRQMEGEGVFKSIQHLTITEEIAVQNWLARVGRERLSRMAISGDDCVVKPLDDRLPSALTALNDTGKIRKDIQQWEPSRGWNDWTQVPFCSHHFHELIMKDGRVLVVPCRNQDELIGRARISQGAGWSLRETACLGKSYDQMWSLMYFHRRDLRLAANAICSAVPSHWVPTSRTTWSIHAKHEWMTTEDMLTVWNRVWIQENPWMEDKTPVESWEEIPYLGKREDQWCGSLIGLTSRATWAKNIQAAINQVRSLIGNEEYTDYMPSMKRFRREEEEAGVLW

[8] = target: Glucose-6-phosphate 1-dehydrogenase (Homo sapiens, UniProt P11413); assay: inhibition of Homo sapiens G6PD, dose series – biochemical, fluorescence, selectivity assay for P. falciparum G6PD inhibitor project, dose response (AID 504792); assay type: functional
Chain of Glucose-6-phosphate 1-dehydrogenase (P11413 whole entry, the tested form may be a part): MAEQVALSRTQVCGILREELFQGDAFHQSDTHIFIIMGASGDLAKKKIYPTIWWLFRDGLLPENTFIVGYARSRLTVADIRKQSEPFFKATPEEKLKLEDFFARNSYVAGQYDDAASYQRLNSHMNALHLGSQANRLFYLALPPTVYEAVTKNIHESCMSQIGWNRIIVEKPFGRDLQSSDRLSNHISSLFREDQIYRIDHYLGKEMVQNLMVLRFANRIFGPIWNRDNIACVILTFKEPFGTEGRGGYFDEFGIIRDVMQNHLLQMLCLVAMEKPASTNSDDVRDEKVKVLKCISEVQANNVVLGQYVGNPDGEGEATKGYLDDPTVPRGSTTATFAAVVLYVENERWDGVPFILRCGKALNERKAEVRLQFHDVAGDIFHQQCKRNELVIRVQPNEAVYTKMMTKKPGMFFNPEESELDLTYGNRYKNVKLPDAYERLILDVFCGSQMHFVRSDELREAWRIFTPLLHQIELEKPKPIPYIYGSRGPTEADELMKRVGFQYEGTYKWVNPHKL

[9] = HIV-1 AD8 envelope cell-cell fusion blockers – cherry-pick, dose response (AID 652062); assay type: functional, cell-based;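 note: luciferase signal from cell-cell fusion driven by HIV-1 clade B AD8 Env; potency is for inhibitors of fusion seen as a drop in luminescence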
[10] = blockers of HIV-1 ZM109 envelope-driven cell-cell fusion – HeLa effector, CEM target cells, luciferase, cherry-pick, dose response (AID 652058); assay type: functional, cell-based;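 note: luciferase signal from HIV-1 Env mediated cell-cell fusion of effector and target cells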
[11] = target: T5, Ubiquitin-conjugating enzyme E2 N (Homo sapiens, UniProt P61088); assay type: functional;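 note: Dose-response confirmation in a TR-FRET assay detecting UBC13-driven polyubiquitin chain formation, inhibition measured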
T5 sequence (P61088 whole entry): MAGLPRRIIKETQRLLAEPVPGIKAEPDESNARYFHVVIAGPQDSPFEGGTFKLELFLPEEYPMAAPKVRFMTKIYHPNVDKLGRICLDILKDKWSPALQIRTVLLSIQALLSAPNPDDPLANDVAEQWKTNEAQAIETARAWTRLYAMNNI

[12] = blockers of HIV-1 envelope-mediated cell-cell fusion – cherry-pick, dose response (AID 652057); assay type: functional, cell-based
[13] = viability loss in CEM21 cells – cell-based, CellTiter-Glo luminescence, cherry-picked, cytotoxicity control for viral fusion inhibitor project, dose response (AID 652042); assay type: functional;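 note: potency for signal decrease meaning cytotoxicity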
[14] = off-target signal loss in HeLa-CEM21 co-culture – HeLa F-luc CTL cells, cherry-picked, counter-screen for HIV-1 Env fusion inhibitor project, dose response (AID 652040); assay type: functional, cell-based;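 note: potency for signal decrease marking cytotoxic or nonspecific inhibition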
[15] = target: T6, Low molecular weight phosphotyrosine protein phosphatase (Homo sapiens, UniProt P24666); assay type: functional; details: read-out: IC50_Mean;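 note: Dose-response confirmation assay measuring inhibition of LMPTP enzyme activity by fluorescence intensity read-out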
T6 sequence (P24666 whole entry): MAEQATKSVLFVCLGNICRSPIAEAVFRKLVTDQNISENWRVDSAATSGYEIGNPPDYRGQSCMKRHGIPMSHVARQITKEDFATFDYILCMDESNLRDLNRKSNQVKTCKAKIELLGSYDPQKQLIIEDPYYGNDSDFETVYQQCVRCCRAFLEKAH

BJ [16] = assay: BJ-TERT-LT-ST fibroblast viability loss – cell-based, RAS-independent, luminescence, dose response (AID 1935); assay type: functional; details: Homo sapiens;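 note: BJ fibroblasts immortalized with TERT plus LT and ST oncogenes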
[17] = target: T7, Microphthalmia-associated transcription factor (Homo sapiens, UniProt O75030); assay: reducers of TRPM1 reporter luminescence, concentration series – cell-based, SK-MEL-5, cherry-picked, set 3, MITF inhibitor project, dose response (AID 493073); assay type: functional;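 note: SK-MEL-5 melanoma cells with luciferase driven by the MITF target TRPM1 promoter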
T7 sequence (O75030 whole entry): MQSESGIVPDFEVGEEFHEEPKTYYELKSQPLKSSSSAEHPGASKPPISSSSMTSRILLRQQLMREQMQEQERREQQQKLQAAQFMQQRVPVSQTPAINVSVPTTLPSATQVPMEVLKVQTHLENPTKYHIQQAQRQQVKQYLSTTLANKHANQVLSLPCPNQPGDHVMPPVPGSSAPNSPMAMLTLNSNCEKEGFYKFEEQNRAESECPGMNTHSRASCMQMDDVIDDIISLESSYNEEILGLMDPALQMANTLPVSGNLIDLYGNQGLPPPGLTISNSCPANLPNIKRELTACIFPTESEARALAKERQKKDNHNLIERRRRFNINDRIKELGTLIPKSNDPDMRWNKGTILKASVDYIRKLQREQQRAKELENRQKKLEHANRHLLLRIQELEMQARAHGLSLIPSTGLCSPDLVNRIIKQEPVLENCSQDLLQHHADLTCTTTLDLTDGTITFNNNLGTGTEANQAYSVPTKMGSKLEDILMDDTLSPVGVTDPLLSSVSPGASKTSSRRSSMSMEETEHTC

[18] = decrease of insulin promoter-GFP reporter – imaging, high-content screening, mouse beta cells (AID 1628); assay type: functional; details: MIN6
[19] = MIN6 cell viability loss – mouse insulinoma, cytotoxicity control, dose response (AID 2122); assay type: functional;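 note: confirmatory high-throughput counterscreen run to flag cytotoxic compounds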
[20] = DRD fibroblast viability loss – cell-based, non-viral oncogenic, luminescence, dose response (AID 1934); assay type: functional; details: Homo sapiens
BJ [21] = assay: BJ-TERT fibroblast viability loss – cell-based, RAS-independent, luminescence, dose response (AID 1933); assay type: functional; details: Homo sapiens
BJ [22] = assay: cells; assay type: functional, cell-based; details: Homo sapiens
[23] = target: Dual specificity tyrosine-phosphorylation-regulated kinase 1A (Rattus norvegicus, UniProt Q63470); assay type: biochemical, Homo sapiens
[24] = test system: Streptococcus sp. 'group A'; assay: Streptococcus pyogenes SK(-)GAS viability under kanamycin – luminescence, BacTiterGlo, confirmation, counter-screen for streptokinase expression inhibitor project, dose response (AID 1900); assay type: functional, organism-based
Streptococcus = assay: GAS UMAA2166 growth inhibition – luminescence, BacTiterGlo, counter-screen for streptokinase expression inhibitor project, dose response (AID 1915); assay type: functional, organism-based;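 note: potency for reduction of bacterial viability or growth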

With O=C1C(=Cc2cccn2-c2ccccc2)C(=O)c2ccccc21 the EC50 [1] was > 99 µM (inactive), the EC50 [2] was 60.7 µM (inactive) and the EC50 [3] was 175 µM (active). The EC50 [4] was 68.6 µM (active) and the IC50 [5] was 4.55 µM (active).

For COC(=O)C1=C(C)N(C)C(C)=C(C(=O)OC)C1c1ccccn1, the EC50 [1] was > 99 µM (inactive) and the EC50 [2] was 56.4 µM (inactive).

For CC(C)n1cnc2c(NCc3ccccc3)cc(N[C@H](C)CO)cc21, the AC50 [6] was 6.67 µM (active), the IC50 [7] was 1.22 µM (active) and the AC50 (INS1) was 1.52 µM (active). For the same molecule, the IC50 (Nonstructural protein 1) was 61.9 µM (active).

In the case of COC(=O)CCC(=O)OC1(C)C(=O)C2=CN(c3ccccc3)C(c3ccc(OC)cc3)=CC2=C(Br)C1=O (stereo not given), the IC50 (Genome polyprotein) is reported as > 100 µM (active) and the IC50 [8] is reported as 42.1 µM (inactive).

With CCOC(=O)c1cnn(-c2c(Cc3ccccc3)c(C)nc3c(-c4ccccc4)c(C)nn23)c1N the IC50 [7] was 4 µM (active).

For CCC(C)N(CCNC(=O)c1ccc2c(c1)NC(=O)c1ccccc1S2)C1CCCCC1 (stereo not given), the AC50 [9] was 3.82 µM (active), the AC50 [10] was 0.923 µM (active) and the IC50 [11] was > 20 µM (inactive). For the same molecule, the AC50 [12] was 0.758 µM (active), the AC50 [13] was 45.1 µM (active) and the IC50 [8] was > 80 µM (inactive). For the same molecule, the AC50 [14] was 1.09 µM (active).

For O=C(CSc1nnc(-c2ccco2)o1)c1ccc[nH]1, the IC50 [15] was 38.1 µM (inactive).

For Cc1cc(-n2c(C)cc(C(=O)CCl)c2C)no1, the EC50 (BJ [16]) was 1.91 µM (inconclusive), the AC50 [17] was 5.5 µM (active) and the IC50 [18] was 3.25 µM (active). The IC50 [19] was 1.66 µM (active), the EC50 [20] was 10.9 µM (inconclusive) and the EC50 (BJ [21]) was 4.75 µM (inconclusive). For the same molecule, the EC50 (BJ [22]) was 2.76 µM (active).

In the case of O=C1N=C(N2CCc3ccccc3C2)S/C1=C\c1ccc(O)cc1, the AC50 [23] is reported as 0.737 µM (active).

For O=C1/C(=C/c2ccc3c(c2)OCO3)Oc2cc(OCC(=O)N3CCC[C@H]3C(=O)O)ccc21, the AC50 [23] was 4.59 µM (active).

In the case of CCn1cc(C(=O)O)c(=O)c2cc(F)c(N3CCN(S(=O)(=O)c4ccc5c(c4)OCCO5)CC3)cc21, the IC50 [15] is reported as 5.48 µM (active), the EC50 [24] is reported as 2.84 µM (active) and the EC50 (Streptococcus) is reported as 5.81 µM (active).

With Cc1ccc(S(=O)(=O)SCCCSS(=O)(=O)c2ccc(C)cc2)cc1 the IC50 [8] was 26.7 µM (inactive).
